#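 Exposure lasted 48 hours, with cells grown in 96-well plates and compounds tested at five concentrations. Here, GI50 denotes the concentration required for 50% inhibition of growth. TGI marks complete inhibition of growth.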
# Legend:
# Experiment in all cases: DTP human tumour cell line panel, 48 h
# DU-145 prostate = tested on: DU-145 prostate
# SK-MEL-28 melanoma = tested on: SK-MEL-28 melanoma
# HOP-92 NSCLC = tested on: HOP-92 NSCLC
# OVCAR-4 ovarian = tested on: OVCAR-4 ovarian
# SW-620 colon = tested on: SW-620 colon
# U251 CNS = tested on: U251 CNS
# SN12C renal = tested on: SN12C renal
# UO-31 renal = tested on: UO-31 renal
# UACC-62 melanoma = tested on: UACC-62 melanoma
# RXF 393 renal = tested on: RXF 393 renal
# SK-OV-3 ovarian = tested on: SK-OV-3 ovarian
# KM12 colon = tested on: KM12 colon
# ACHN renal = tested on: ACHN renal
# RPMI-8226 leukemia = tested on: RPMI-8226 leukemia
# MDA-MB-435 = tested on: MDA-MB-435
# IGROV1 ovarian = tested on: IGROV1 ovarian
# UACC-257 melanoma = tested on: UACC-257 melanoma
# MCF7 breast = tested on: MCF7 breast
# OVCAR-5 ovarian = tested on: OVCAR-5 ovarian
# NCI/ADR-RES ovarian = tested on: NCI/ADR-RES ovarian
# BT-549 breast = tested on: BT-549 breast
# T-47D breast = tested on: T-47D breast
# HOP-62 NSCLC = tested on: HOP-62 NSCLC
# SK-MEL-5 melanoma = tested on: SK-MEL-5 melanoma
# NCI-H460 lung = tested on: NCI-H460 lung
# SK-MEL-2 melanoma = tested on: SK-MEL-2 melanoma
# 786-0 renal = tested on: 786-0 renal
# K-562 leukemia = tested on: K-562 leukemia
# M14 melanoma = tested on: M14 melanoma
# OVCAR-8 ovarian = tested on: OVCAR-8 ovarian
# SF-539 CNS = tested on: SF-539 CNS
# SF-295 CNS = tested on: SF-295 CNS
# HL-60(TB) leukemia = tested on: HL-60(TB) leukemia
# CCRF-CEM leukemia = tested on: CCRF-CEM leukemia
# TK-10 renal = tested on: TK-10 renal
# NCI-H23 lung = tested on: NCI-H23 lung
# HCC-2998 colon = tested on: HCC-2998 colon
# LOX IMVI melanoma = tested on: LOX IMVI melanoma
# A498 renal = tested on: A498 renal
# COLO 205 colon = tested on: COLO 205 colon
# EKVX NSCLC = tested on: EKVX NSCLC
# HS 578T breast = tested on: HS 578T breast
# HT29 colon = tested on: HT29 colon
# SF-268 CNS = tested on: SF-268 CNS
# SNB-75 CNS = tested on: SNB-75 CNS
# HCT-15 colon = tested on: HCT-15 colon
# NCI-H522 lung = tested on: NCI-H522 lung
# SNB-19 CNS = tested on: SNB-19 CNS
# MALME-3M melanoma = tested on: MALME-3M melanoma
# HCT-116 colon = tested on: HCT-116 colon
# MOLT-4 leukemia = tested on: MOLT-4 leukemia
# CAKI-1 renal = tested on: CAKI-1 renal
# A549 NSCLC = tested on: A549 NSCLC
# NCI-H226 lung = tested on: NCI-H226 lung
# PC-3 prostate = tested on: PC-3 prostate
# MDA-MB-231 breast = tested on: MDA-MB-231 breast
smiles,measurement,setting,value
C#CCOc1ccc(-c2csc(NC(=O)C=C)n2)cc1NS(=O)(=O)c1cccc2c(N(C)C)cccc12,GI50,DU-145 prostate,1540 nM
same,TGI,DU-145 prostate,5250 nM
same,GI50,SK-MEL-28 melanoma,1250 nM
same,TGI,SK-MEL-28 melanoma,3610 nM
same,GI50,HOP-92 NSCLC,819 nM
same,TGI,HOP-92 NSCLC,3610 nM
same,GI50,OVCAR-4 ovarian,3000 nM
same,TGI,OVCAR-4 ovarian,22600 nM
same,GI50,SW-620 colon,848 nM
same,TGI,SW-620 colon,1750 nM
same,GI50,U251 CNS,2400 nM
same,TGI,U251 CNS,8390 nM
same,GI50,SN12C renal,1300 nM
same,TGI,SN12C renal,5020 nM
same,GI50,UO-31 renal,727 nM
same,TGI,UO-31 renal,1430 nM
same,GI50,UACC-62 melanoma,1180 nM
same,TGI,UACC-62 melanoma,6050 nM
same,GI50,RXF 393 renal,1120 nM
same,TGI,RXF 393 renal,2070 nM
same,GI50,SK-OV-3 ovarian,7070 nM
same,TGI,SK-OV-3 ovarian,15700 nM
same,GI50,KM12 colon,2210 nM
same,TGI,KM12 colon,8270 nM
same,GI50,ACHN renal,861 nM
same,TGI,ACHN renal,1740 nM
same,GI50,RPMI-8226 leukemia,947 nM
same,TGI,RPMI-8226 leukemia,2570 nM
same,GI50,MDA-MB-435,1310 nM
same,TGI,MDA-MB-435,3840 nM
same,GI50,IGROV1 ovarian,1090 nM
same,TGI,IGROV1 ovarian,2700 nM
same,GI50,UACC-257 melanoma,2460 nM
same,TGI,UACC-257 melanoma,10000 nM
same,GI50,MCF7 breast,1090 nM
same,TGI,MCF7 breast,5100 nM
same,GI50,OVCAR-5 ovarian,1470 nM
same,TGI,OVCAR-5 ovarian,6180 nM
same,GI50,NCI/ADR-RES ovarian,1450 nM
same,TGI,NCI/ADR-RES ovarian,50000 nM
same,GI50,BT-549 breast,810 nM
same,TGI,BT-549 breast,1520 nM
same,GI50,T-47D breast,1490 nM
same,TGI,T-47D breast,6950 nM
same,GI50,HOP-62 NSCLC,1640 nM
same,TGI,HOP-62 NSCLC,8040 nM
same,GI50,SK-MEL-5 melanoma,1680 nM
same,TGI,SK-MEL-5 melanoma,6280 nM
same,GI50,NCI-H460 lung,2110 nM
same,TGI,NCI-H460 lung,8520 nM
same,GI50,SK-MEL-2 melanoma,973 nM
same,TGI,SK-MEL-2 melanoma,2190 nM
same,GI50,786-0 renal,909 nM
same,TGI,786-0 renal,1940 nM
same,GI50,K-562 leukemia,1200 nM
same,TGI,K-562 leukemia,3800 nM
same,GI50,M14 melanoma,1020 nM
same,TGI,M14 melanoma,2580 nM
same,GI50,OVCAR-8 ovarian,930 nM
same,TGI,OVCAR-8 ovarian,2020 nM
same,GI50,SF-539 CNS,861 nM
same,TGI,SF-539 CNS,1780 nM
same,GI50,SF-295 CNS,3810 nM
same,TGI,SF-295 CNS,11500 nM
same,GI50,HL-60(TB) leukemia,683 nM
same,TGI,HL-60(TB) leukemia,2120 nM
same,GI50,CCRF-CEM leukemia,312 nM
same,TGI,CCRF-CEM leukemia,2650 nM
same,GI50,TK-10 renal,934 nM
same,TGI,TK-10 renal,2040 nM
same,GI50,NCI-H23 lung,1790 nM
same,TGI,NCI-H23 lung,7670 nM
same,GI50,HCC-2998 colon,3000 nM
same,TGI,HCC-2998 colon,9580 nM
same,GI50,LOX IMVI melanoma,25.2 nM
same,TGI,LOX IMVI melanoma,668 nM
same,GI50,A498 renal,1710 nM
same,TGI,A498 renal,6830 nM
same,GI50,COLO 205 colon,2190 nM
same,TGI,COLO 205 colon,7970 nM
same,GI50,EKVX NSCLC,7920 nM
same,TGI,EKVX NSCLC,22600 nM
same,GI50,HS 578T breast,1680 nM
same,TGI,HS 578T breast,22300 nM
same,GI50,HT29 colon,838 nM
same,TGI,HT29 colon,1670 nM
same,GI50,SF-268 CNS,2460 nM
same,TGI,SF-268 CNS,11000 nM
same,GI50,SNB-75 CNS,862 nM
same,TGI,SNB-75 CNS,4600 nM
same,GI50,HCT-15 colon,900 nM
same,TGI,HCT-15 colon,2160 nM
same,GI50,NCI-H522 lung,806 nM
same,TGI,NCI-H522 lung,1630 nM
same,GI50,SNB-19 CNS,2250 nM
same,TGI,SNB-19 CNS,12100 nM
same,GI50,MALME-3M melanoma,1070 nM
same,TGI,MALME-3M melanoma,3460 nM
same,GI50,HCT-116 colon,800 nM
same,TGI,HCT-116 colon,1570 nM
same,GI50,MOLT-4 leukemia,1180 nM
same,TGI,MOLT-4 leukemia,3830 nM
same,GI50,CAKI-1 renal,1380 nM
same,TGI,CAKI-1 renal,5810 nM
same,GI50,A549 NSCLC,2970 nM
same,TGI,A549 NSCLC,13200 nM
same,GI50,NCI-H226 lung,1170 nM
same,TGI,NCI-H226 lung,3510 nM
same,GI50,PC-3 prostate,1900 nM
same,TGI,PC-3 prostate,8550 nM
same,GI50,MDA-MB-231 breast,1790 nM
same,TGI,MDA-MB-231 breast,9420 nM

# Source: PubChem BioAssay (NCI)
